Results on 1 compound are retold here after patent US5665882A, “Pyridyl ethylation of lactams” (Merck & Co., Inc., priority 1996, dated 1997).

The subject of this assay is ADP-stimulated platelets. The assay is described as follows: ADP-stimulated platelet aggregation assay (gel-filtered human platelets). The class given is cell-based. To be noted: inhibition of ADP-stimulated platelet aggregation by 50% relative to control; gel-filtered human platelets 2×10^8 per ml, fibrinogen 100 ug/ml, Ca^2+ 1 mM, 10 mM ADP, 37° C. The text has this: The activity of these fibrinogen receptor antagonists is illustrated below. One test used to evaluate fibrinogen receptor antagonist activity is based on evaluation of inhibition of ADP-stimulated platelets. Aggregation requires that fibrinogen bind to and occupy the platelet fibrinogen receptor site. Inhibitors of fibrinogen binding inhibit aggregation. In the ADP-stimulated platelet aggregation assay used to determine inhibition associated with these fibrinogen receptor antagonists, human platelets are isolated from fresh blood, collected into acid citrate/dextrose by differential centrifugation followed by gel filtration on Sepharose 2B in divalent ion-free Tyrode's buffer (pH 7.4) containing 2% bovine serum albumin.
Platelet aggregation is measured at 37° C. in a Chronolog aggregometer. The reaction mixture contains gel-filtered human platelets (2×10^8 per ml), fibrinogen (100 micrograms per ml (ug/ml)), Ca^2+ (1 mM), and the fibrinogen receptor antagonists tested. The aggregation is initiated by adding 10 mM ADP 1 minute after the other components are added. The reaction is then allowed to proceed for at least 2 minutes. The extent of inhibition of aggregation is expressed as the percentage of the rate of aggregation observed in the absence of inhibitor. The IC50 is the dose of a particular compound inhibiting aggregation by 50% relative to a control lacking the compound. […]

What is called IC50 is the concentration at which inhibition is half-maximal. Compound `C[C@H](CC(=O)O)NC(=O)CN1CCC[C@@H](CCC2CCNCC2)C1=O` showed an IC50 of 100 µM.
